Source: patent publication US20090246153A1, “COSMETIC COMPOSITIONS FOR THE INHIBITION OF REACTIVE OXYGEN SPECIES” (Nu Skin International, Inc., priority 2008, published 2009)

Tests used:
[1] = test system: arNOX; assay: arNOX inhibition: superoxide formation measured by reduction of ferric cytochrome c, serum or buffy coats; type: biochemical
Procedure: Superoxide Production By Buffy Coats: Buffy coats, a mixture of lymphocytes and platelets. Such buffy coats are commercially available from, for example Rockland ImmunoChemicals (Gilbertsville, Pa.). The blood samples were maintained at 4° C. prior to collection and assay. Ca. 10^7 cells were added to each assay. Cell numbers were determined using a hemocytometer.
Reduction of ferric cytochrome c by superoxide was employed as a standard measure of superoxide formation (Mayo, L. A. and Cumutte, J. (1990) Meth. Enzyme. 186, 567-575. 7. Butler, J, Koppenol, W. H. and Margollash, E. (1982) J. Biol. Chem. 257, 10747). This is a widely accepted method when coupled to superoxide dismutase inhibition for the measurement of superoxide generation. The assay consists of 150 μl serum or 40 μl buffy coats in PBSG buffer (8.06 g NaCl, 0.2 g KCl, 0.18 g Na2HPO4, 0.26 g KH2PO4, 0.13 g CaCl2, 0.1 g MgCl2 1.35 g glucose dissolved in 1000 ml deionized water, adjusted to pH 7.4, filtered and stored at 4° C.) Rates were determined using an SLM Aminco DW-2000 spectrophotometer (Milton Roy, Rochester, N.Y., USA) in the dual wave length mode of operation with continuous measurements over 1 min every 1.5 min. After 45 min, test compounds were added and the reaction was continued for 45 min. After 45 min. A millimolar extinction coefficient of 19.1 cm^−1 was used for reduced ferricytochrome c. The results of the test compounds are provided in Table I. Extracts were made of the compounds in water unless otherwise indicated.

[2] = test system: arNOX; settings: cited from earlier work

Compound | ArNOX ACTIVITY % OF NO ADDITION ([1]; Ethanol, 25 μg/ml) [%] | INHIBITION (−) or STIMULATION (+) ([1]; Ethanol, 25 μg/ml) [%] | arNOX activity of aging cells [2] | ArNOX ACTIVITY % OF NO ADDITION ([1]; Ethanol, 0.25 μg/ml) [%] | INHIBITION (−) or STIMULATION (+) ([1]; Ethanol, 0.25 μg/ml) [%] | ArNOX ACTIVITY % OF NO ADDITION ([1]; Ethanol, 2.5 μg/ml) [%] | INHIBITION (−) or STIMULATION (+) ([1]; Ethanol, 2.5 μg/ml) [%] | ArNOX ACTIVITY % OF NO ADDITION ([1]; Water, 25 μg/ml) [%] | INHIBITION (−) or STIMULATION (+) ([1]; Water, 25 μg/ml) [%]
CC1=C(/C=C/C(C)=C/C=C/C(C)=C/C=C/C=C(C)/C=C/C=C(C)/C=C/C2=C(C)C(=O)[C@@H](O)CC2(C)C)C(C)(C)C[C@H](O)C1=O [Natural astaxanthin, astaxanthin] | 62 | −38 | – | – | – | – | – | – | –
COC1=C(OC)C(=O)C(C/C=C(\C)CC/C=C(\C)CC/C=C(\C)CC/C=C(\C)CC/C=C(\C)CC/C=C(\C)CC/C=C(\C)CC/C=C(\C)CC/C=C(\C)CCC=C(C)C)=C(C)C1=O [co-enzyme Q, ubiquinone] | – | – | inhibited | – | – | – | – | – | –
CC1=C(/C=C/C(C)=C/C=C/C(C)=C/C=C/C=C(C)/C=C/C=C(C)/C=C/C2=C(C)CCCC2(C)C)C(C)(C)CCC1 [β-Carotene] | 68 | −32 | – | 73 | −42 | 50 | −50 | 28 | −72
